Measured values as given in ChEMBL document CHEMBL1132404, “2,4,6-triarylchalcogenopyrylium dyes related in structure to the antitumor agent AA1 as in vitro sensitizers for the photodynamic therapy of cancer” (J Med Chem, 1999).

What was measured:
R3230AC = experiment: Cell viability was measured against R3230AC rat mammary adenocarcinoma cells at 10 uM concentration; assay type: functional
[1] = (§1) The rate of hydrolysis as a function of time; assay type: functional
[2] = Partition coefficient (logP); assay type: physicochemical; settings: octanol/water
[3] = Inhibition of mitochondrial Cytochrome c Oxidase.; settings: concentration not given here
[4] = as §1; assay type: ADME

Row | logP [2] | inhibition [3] [%] | k1 [4] [s⁻¹] | k2 [4] [s⁻¹] | Compound | Cell viability (R3230AC) [%] | k1 [1] [s⁻¹] | k2 [1] [s⁻¹]
1 | 1.7 | 0.78 |  |  | CN(C)c1ccc(-c2cc(-c3ccc(N(C)C)cc3)[se+]c(-c3ccc(N(C)C)cc3)c2)cc1 |  | 0.00024 | 1.7e-05
2 | 2.2 | 0.82 | 0.0001 | 0.000022 | CN(C)c1ccc(-c2cc(-c3ccc(N(C)C)cc3)[s+]c(-c3ccc(N(C)C)cc3)c2)cc1.[Cl-] |  |  | 

Row | Compound | logP [2] | inhibition [3] [%] | k1 [4] [s⁻¹] | k2 [4] [s⁻¹] | Cell viability (R3230AC) [%] | k1 [1] [s⁻¹] | k2 [1] [s⁻¹]
3 | CN(C)c1ccc(-c2cc(-c3ccc(N(C)C)cc3)[te+]c(-c3ccc(N(C)C)cc3)c2)cc1.[Cl-] | 2.3 | 0.38 |  |  | ~75 | 0.00024 | 1.1e-05
